Assay results reported in patent US7862842B2, “Use of cationic preservative in food products” (priority 2001, dated 2011).

How the values were obtained:
[1] = system: Listeria monocytogenes ATCC 7644; assay: minimum inhibitory concentration of LAE; format: cell-based; conditions: Gram + Bacteria
[2] = system: Chaetonium globosum ATCC 6205; assay: minimum inhibitory concentration of LAE; format: cell-based; conditions: Fungi
[3] = system: Staphylococcus aureus ATCC 6538; assay: minimum inhibitory concentration of LAE; format: cell-based; conditions: Gram + Bacteria
[4] = system: Gliocadium virens ATCC 4645; assay: minimum inhibitory concentration of LAE; format: cell-based; conditions: Fungi
[5] = system: Mould & yeast; assay: microbiological evolution in a carbonated orange beverage; format: cell-based; conditions: LAE 100 ppm, 17° C.
Method: (§1) The determination of the microbiological population is carried out according to the ISO standards.
(§2) The samples are treated by dilution in buffer peptone with the appropriate neutralising agent of the preservative. The culture media used for counting the microorganisms are: Soya triptone agar (32-35° C., 48 hours) for the determination of mesophilic bacteria; Sabouraud agar with chloramfenicol (25° C., 3-5 days) for fungi and yeast; Violet red bile glucose agar (32-35° C., 24 hours) for enterobacteria; Soya triptone agar (17° C., 5 days) for psychrotrophic bacteria.
(§3) The sample LAE was added to at a concentration of 100 ppm and its microbiological evolution at 17° C. was compared against a control.

[6] = system: Aerobe Bacteria; assay: as above; format: cell-based; conditions: LAE 100 ppm, 17° C.
Method: as §1, §2, §3

[7] = system: Bacillus cereus var mycoide ATCC 11778; assay: minimum inhibitory concentration of LAE; format: cell-based; conditions: Gram + Bacteria
[8] = system: Penicillium funiculosum CECT 2914; assay: minimum inhibitory concentration of LAE; format: cell-based; conditions: Fungi
[9] = system: Arthrobacter oxydans ATCC 8010; assay: minimum inhibitory concentration of LAE; format: cell-based; conditions: Gram + Bacteria
[10] = metabolism in rats; format: in vivo
[11] = system: Penicillium chrysogenum CECT 2802; assay: minimum inhibitory concentration of LAE; format: cell-based; conditions: Fungi
[12] = system: Lactobacillus delbrueckii ssp lactis CECT 372; assay: minimum inhibitory concentration of LAE; format: cell-based; conditions: Gram + Bacteria
[13] = system: Proteus mirabilis CECT 170; assay: minimum inhibitory concentration of LAE; format: cell-based; conditions: Gram − Bacteria
[14] = toxicological studies; format: in vivo; conditions: animals and humans
[15] = system: Mould & yeast; assay: microbiological evolution in semi-preserved codfish in oil; format: cell-based; conditions: LAE 100 ppm, 4° C.
Method: as §1, §2
(§4) The sample LAE was added to the oil assayed at a concentration of 100 ppm and its microbiological evolution at 4° C. was compared against a control.

[16] = system: Aerobe Bacteria; assay: as above; format: cell-based; conditions: LAE 100 ppm, 4° C.
Method: as §1, §2, §4

[17] = system: Mould & yeast; assay: microbiological evolution in ketchup; format: cell-based; conditions: LAE 100 ppm, 25° C.
Method: as §1, §2
(§5) The sample LAE was added to at a concentration of 100 ppm and its microbiological evolution at 25° C. was compared against a control.

[18] = system: Aerobe Bacteria; assay: microbiological evolution in ketchup; format: cell-based; conditions: LAE 100 ppm, 25° C.
Method: as §1, §2, §5

[19] = system: Enterobacteria; assay: microbiological evolution in ketchup; format: cell-based; conditions: LAE 100 ppm, 25° C.
Method: as §1, §2, §5

[20] = system: Escherichia coli 0157H7; assay: minimum inhibitory concentration of LAE; format: cell-based; conditions: Gram − Bacteria
[21] = system: Saccharomyces cerevisiae ATCC 9763; assay: minimum inhibitory concentration of LAE; format: cell-based; conditions: Yeast
[22] = system: Leuconostoc mesenteroides CETC 912; assay: minimum inhibitory concentration of LAE; format: cell-based; conditions: Gram + Bacteria
[23] = system: Klebsiella pneumoniae var pneumoniae CECT 178; assay: minimum inhibitory concentration of LAE; format: cell-based; conditions: Gram − Bacteria
[24] = system: Aspergillus niger ATCC14604; assay: minimum inhibitory concentration of LAE; format: cell-based; conditions: Fungi
[25] = system: Mould & yeast; assay: microbiological evolution in veal stew; format: cell-based; conditions: LAE 100 ppm, 10° C.
Method: as §1, §2
(§6) The sample LAE was added to at a concentration of 100 ppm and its microbiological evolution at 10° C. was compared against a control.

[26] = system: Aerobe Bacteria; assay: microbiological evolution in veal stew; format: cell-based; conditions: LAE 100 ppm, 10° C.
Method: as §1, §2, §6

[27] = system: Enterobacteria; assay: microbiological evolution in veal stew; format: cell-based; conditions: LAE 100 ppm, 10° C.
Method: as §1, §2, §6

[28] = system: Pseudomonas aeruginosa ATCC 9027; assay: minimum inhibitory concentration of LAE; format: cell-based; conditions: Gram − Bacteria
[29] = system: Aureobasidium pullulans ATCC 9348; assay: minimum inhibitory concentration of LAE; format: cell-based; conditions: Fungi
[30] = system: Aerobe Bacteria; assay: microbiological evolution in custard; format: cell-based; conditions: LAE 100 ppm, 25° C.
Method: as §1, §2, §5

[31] = system: Anaerobe Bacteria; assay: microbiological evolution in custard; format: cell-based; conditions: LAE 100 ppm, 25° C.
Method: as §1, §2, §5

[32] = system: Alcaligenes faecalis ATCC 8750; assay: minimum inhibitory concentration of LAE; format: cell-based; conditions: Gram − Bacteria
[33] = system: Escherichia coli ATCC 8739; assay: minimum inhibitory concentration of LAE; format: cell-based; conditions: Gram − Bacteria
[34] = system: Clostridium perfringens ATCC 77454; format: cell-based; conditions: Gram + Bacteria
[35] = system: Mould & yeast; assay: microbiological evolution in fairy cakes; format: cell-based; conditions: LAE 80 ppm, 25° C.
Method: as §1, §2
(§7) The sample LAE was added to at a concentration of 80 ppm and its microbiological evolution at 25° C. was compared against a control.

[36] = system: Aerobe Bacteria; assay: microbiological evolution in fairy cakes; format: cell-based; conditions: LAE 80 ppm, 25° C.
Method: as §1, §2, §7

[37] = system: Bacillus subtilis ATCC 6633; assay: minimum inhibitory concentration of LAE; format: cell-based; conditions: Gram + Bacteria
[38] = system: Citrobacter freundii ATCC 22636; assay: minimum inhibitory concentration of LAE; format: cell-based; conditions: Gram − Bacteria
[39] = system: Micrococcus luteus ATCC 9631; assay: minimum inhibitory concentration of LAE; format: cell-based; conditions: Gram + Bacteria
[40] = system: Mycobacterium phlei ATCC 41423; assay: minimum inhibitory concentration of LAE; format: cell-based; conditions: listed under Gram − Bacteria
[41] = system: Candida albicans ATCC 10231; assay: minimum inhibitory concentration of LAE; format: cell-based; conditions: Yeast
[42] = system: Mould & yeast; assay: microbiological evolution in a blackberry juice; format: cell-based; conditions: LAE 60 ppm, 34° C.
Method: as §1, §2
(§8) The sample LAE was added to at a concentration of 60 ppm and its microbiological evolution at 34° C. was compared against a control.

[43] = system: Aerobe Bacteria; assay: microbiological evolution in a blackberry juice; format: cell-based; conditions: LAE 60 ppm, 34° C.
Method: as §1, §2, §8

[44] = system: Bordetella bronchiseptica ATCC 4617; assay: minimum inhibitory concentration of LAE; format: cell-based; conditions: Gram − Bacteria
[45] = system: Rhodotorula rubra CECT 1158; assay: minimum inhibitory concentration of LAE; format: cell-based; conditions: Yeast
[46] = system: Salmonella typhimurium ATCC 16028; assay: minimum inhibitory concentration of LAE; format: cell-based; conditions: Gram − Bacteria
[47] = system: Serratia marcenses CECT 274; assay: minimum inhibitory concentration of LAE; format: cell-based; conditions: Gram − Bacteria
[48] = system: Aerobe Bacteria; assay: evolution of bacteria in a chicken product; format: cell-based; conditions: LAE 150 ppm, 10° C.
Method: as §1, §2
(§9) The sample LAE was added to at a concentration of 150 ppm and the evolution of aerobe and psychrotrophic bacteria at 10° C. was compared against a control.

[49] = system: Psychro. Bacteria; assay: evolution of bacteria in a chicken product; format: cell-based; conditions: LAE 150 ppm, 10° C.
Method: as §1, §2, §9

[50] = system: Enterobacter aerogenes CECT 689; assay: minimum inhibitory concentration of LAE; format: cell-based; conditions: Gram − Bacteria

## CCCCCCCCCCCC(=O)N[C@@H](CCCN=C(N)N)C(=O)OCC.Cl [LAE, ethyl ester of the lauramide of the arginine monohydrochloride]
[1]
  M.I.C.: 10 ppm
[2]
  M.I.C.: 16 ppm
[3]
  M.I.C.: 32 ppm
[4]
  M.I.C.: 32 ppm
[5]; 0 days
  Mould & yeast count: <10 cfu/g
[5]; 14 days
  Mould & yeast count: <10 cfu/g
[6]; 0 days
  Aerobe Bacteria count: 4.3 · 10^2 cfu/g
[6]; 14 days
  Aerobe Bacteria count: 1.0 · 10^2 cfu/g
[7]
  M.I.C.: 32 ppm
[8]
  M.I.C.: 16 ppm
[9]
  M.I.C.: 64 ppm
[10]
  absorption and metabolism: fast absorption and metabolisation into naturally-occurring amino acids and the fatty acid lauric acid
[11]
  M.I.C.: 128 ppm
[12]
  M.I.C.: 16 ppm
[13]
  M.I.C.: 32 ppm
[14]
  toxicity: completely harmless to animals and humans
[15]; 0 days
  Mould & yeast count: 3.0 · 10^2 cfu/g
[15]; 14 days
  Mould & yeast count: 5.4 · 10^3 cfu/g
[15]; 43 days
  Mould & yeast count: 8.2 · 10^3 cfu/g
[16]; 0 days
  Aerobe Bacteria count: 7.6 · 10^3 cfu/g
[16]; 14 days
  Aerobe Bacteria count: 1.0 · 10^4 cfu/g
[16]; 43 days
  Aerobe Bacteria count: 8.5 · 10^4 cfu/g
[17]; 0 days
  Mould & yeast count: <10 cfu/g
[17]; 14 days
  Mould & yeast count: 1.4 · 10^1 cfu/g
[18]; 0 days
  Aerobe Bacteria count: <10 cfu/g
[18]; 14 days
  Aerobe Bacteria count: 2.2 · 10^3 cfu/g
[19]; 0 days
  Enterobacteria count: <10 cfu/g
[19]; 14 days
  Enterobacteria count: <10 cfu/g
[20]
  M.I.C.: 20 ppm
[21]
  M.I.C.: 32 ppm
[22]
  M.I.C.: 32 ppm
[23]
  M.I.C.: 32 ppm
[24]
  M.I.C.: 32 ppm
[25]; 0 days
  Mould & yeast count: <10 cfu/g
[25]; 14 days
  Mould & yeast count: <10 cfu/g
[26]; 0 days
  Aerobe Bacteria count: <10 cfu/g
[26]; 14 days
  Aerobe Bacteria count: <10 cfu/g
[27]; 0 days
  Enterobacteria count: <10 cfu/g
[27]; 14 days
  Enterobacteria count: <10 cfu/g
[28]
  M.I.C.: 64 ppm
[29]
  M.I.C.: 16 ppm
[30]; 0 days
  Aerobe Bacteria count: <10 cfu/g
[30]; 5 days
  Aerobe Bacteria count: 1.1 · 10^3 cfu/g
[31]; 0 days
  Anaerobe Bacteria count: <10 cfu/g
[31]; 5 days
  Anaerobe Bacteria count: 4.1 · 10^2 cfu/g
[32]
  M.I.C.: 64 ppm
[33]
  M.I.C.: 32 ppm
[34]
  M.I.C.: 16 ppm
[35]; 0 months
  Mould & yeast count: <10 cfu/g
[35]; 3 months
  Mould & yeast count: <10 cfu/g
[36]; 0 months
  Aerobe Bacteria count: <10 cfu/g
[36]; 3 months
  Aerobe Bacteria count: 1.1 · 10^2 cfu/g
[37]
  M.I.C.: 16 ppm
[38]
  M.I.C.: 64 ppm
[39]
  M.I.C.: 128 ppm
[40]
  M.I.C.: 2 ppm
[41]
  M.I.C.: 16 ppm
[42]; 0 days
  Mould & yeast count: <10 cfu/g
[42]; 14 days
  Mould & yeast count: <10 cfu/g
[43]; 0 days
  Aerobe Bacteria count: 4.0 · 10^2 cfu/g
[43]; 14 days
  Aerobe Bacteria count: 2.4 · 10^3 cfu/g
[44]
  M.I.C.: 128 ppm
[45]
  M.I.C.: 16 ppm
[46]
  M.I.C.: 32 ppm
[47]
  M.I.C.: 32 ppm
[48]; 0 days
  Aerobe Bacteria count: 1.2 · 10^5 cfu/g
[48]; 14 days
  Aerobe Bacteria count: 4.2 · 10^5 cfu/g
[48]; 43 days
  Aerobe Bacteria count: 6.1 · 10^5 cfu/g
[49]; 0 days
  Psychro. Bacteria count: 3.0 · 10^4 cfu/g
[49]; 14 days
  Psychro. Bacteria count: 7.1 · 10^4 cfu/g
[49]; 43 days
  Psychro. Bacteria count: 6.8 · 10^4 cfu/g
[50]
  M.I.C.: 32 ppm
